Data as given in ChEMBL document CHEMBL1201862, “PubChem BioAssay data set” (2004).
Calls of active or inactive are those of the source.

Key:
Hexokinase HKDC1 = molecular target: T1, Hexokinase HKDC1 (Homo sapiens, UniProt Q2TB90); test: activation of HKDC1 glucose phosphorylation – biochemical, W721R variant, dose response (AID 504730); assay type: functional
T1 sequence (Q2TB90 whole entry): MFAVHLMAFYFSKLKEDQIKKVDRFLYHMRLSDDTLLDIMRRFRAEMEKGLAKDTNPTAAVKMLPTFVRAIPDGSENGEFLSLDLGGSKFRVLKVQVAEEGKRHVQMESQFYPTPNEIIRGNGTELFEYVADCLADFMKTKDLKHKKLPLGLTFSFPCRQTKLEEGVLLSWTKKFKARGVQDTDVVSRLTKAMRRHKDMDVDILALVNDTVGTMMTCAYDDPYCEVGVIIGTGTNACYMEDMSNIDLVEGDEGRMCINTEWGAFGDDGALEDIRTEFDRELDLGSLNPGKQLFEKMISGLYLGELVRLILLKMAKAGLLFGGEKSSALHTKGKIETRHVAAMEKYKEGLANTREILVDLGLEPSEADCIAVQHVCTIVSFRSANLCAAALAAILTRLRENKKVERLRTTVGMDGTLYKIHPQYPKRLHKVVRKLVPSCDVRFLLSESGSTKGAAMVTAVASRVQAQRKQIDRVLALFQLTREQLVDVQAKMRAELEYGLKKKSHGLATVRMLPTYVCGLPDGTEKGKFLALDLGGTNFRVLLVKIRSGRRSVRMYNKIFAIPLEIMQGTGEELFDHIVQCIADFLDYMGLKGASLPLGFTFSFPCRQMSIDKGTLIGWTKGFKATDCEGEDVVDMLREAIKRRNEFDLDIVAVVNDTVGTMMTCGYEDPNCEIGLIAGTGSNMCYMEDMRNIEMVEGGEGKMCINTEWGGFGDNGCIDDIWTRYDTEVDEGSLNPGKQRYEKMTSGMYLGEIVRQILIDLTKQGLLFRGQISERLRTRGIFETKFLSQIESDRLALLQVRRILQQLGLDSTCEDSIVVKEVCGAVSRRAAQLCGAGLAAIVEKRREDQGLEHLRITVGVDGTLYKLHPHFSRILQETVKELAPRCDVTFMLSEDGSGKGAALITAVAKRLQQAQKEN

Nonstructural protein 1 = Nonstructural protein 1 (Influenza A virus, UniProt Q194T2); assay type: functional, Influenza A virus (A/California/07/2009(H1N1))
Chain of Nonstructural protein 1 (Q194T2 whole entry): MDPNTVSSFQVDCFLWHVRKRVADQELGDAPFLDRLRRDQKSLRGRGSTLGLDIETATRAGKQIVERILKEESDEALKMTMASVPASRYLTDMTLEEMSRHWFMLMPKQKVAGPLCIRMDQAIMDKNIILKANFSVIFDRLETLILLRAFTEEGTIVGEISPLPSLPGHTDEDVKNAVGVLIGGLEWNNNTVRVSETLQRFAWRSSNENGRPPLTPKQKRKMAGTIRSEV

Hexokinase-1 = Hexokinase-1 (Homo sapiens, UniProt P19367); test: HK1 enzyme activation by HKDC1 hits – biochemical, selectivity assay for HKDC1 activator project, dose response (AID 504762); assay type: functional
[1] = molecular target: T2, Microphthalmia-associated transcription factor (Homo sapiens, UniProt O75030); test: reducers of TRPM1 reporter luminescence, concentration series – cell-based, SK-MEL-5, cherry-picked, set 3, MITF inhibitor project, dose response (AID 493073); assay type: functional;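 further: SK-MEL-5 melanoma cells with luciferase driven by the MITF target TRPM1 promoter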
T2 sequence (O75030 whole entry): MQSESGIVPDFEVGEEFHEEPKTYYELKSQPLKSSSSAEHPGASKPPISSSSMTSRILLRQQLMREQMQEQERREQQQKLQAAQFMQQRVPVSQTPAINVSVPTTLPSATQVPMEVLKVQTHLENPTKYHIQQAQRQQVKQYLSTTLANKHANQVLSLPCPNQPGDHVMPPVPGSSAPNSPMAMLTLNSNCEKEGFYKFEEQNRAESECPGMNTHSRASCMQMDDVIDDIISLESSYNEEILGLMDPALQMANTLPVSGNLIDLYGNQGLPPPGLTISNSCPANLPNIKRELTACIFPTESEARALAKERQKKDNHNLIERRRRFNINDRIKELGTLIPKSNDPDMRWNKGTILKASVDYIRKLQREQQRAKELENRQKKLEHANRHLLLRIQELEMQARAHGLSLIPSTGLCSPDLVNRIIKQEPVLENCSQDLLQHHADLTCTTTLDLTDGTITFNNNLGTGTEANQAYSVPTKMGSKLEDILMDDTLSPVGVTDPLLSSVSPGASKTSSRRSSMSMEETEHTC

HEK293 = test: EBV LMP1 TES2 canonical NF-kB signalling blockers – cell-based, HEK293, luciferase, cherry-pick, dose response (AID 588343); assay type: functional; conditions: Homo sapiens
[2] = molecular target: Heat shock protein HSP 90-alpha (Homo sapiens, UniProt P07900); assay type: functional, organism-based
[3] = molecular target: Latent membrane protein 1 (Human herpesvirus 4 (strain B95-8), UniProt P03230); test: LMP1 TES1 pathway selectivity over dsRED control – imaging, HEK293T, dual-color eGFP/dsRED, cherry-picks, selectivity assay for LMP1 NF-kB inhibitor project, dose response (AID 588398); assay type: functional, cell-based
[4] = molecular target: Botulinum neurotoxin type A (Clostridium botulinum (strain Hall / ATCC 3502 / NCTC 13319 / Type A), UniProt P0DPI1); test: High-throughput multiplex microsphere dose response for inhibitors of toxin protease, specifically Botulinum neurotoxin light chain A protease, compounds from Cherry Pick 02.; assay type: functional; conditions: read-out: EC50_MICROM
Chain of Botulinum neurotoxin type A (P0DPI1 2-448 limits assumed): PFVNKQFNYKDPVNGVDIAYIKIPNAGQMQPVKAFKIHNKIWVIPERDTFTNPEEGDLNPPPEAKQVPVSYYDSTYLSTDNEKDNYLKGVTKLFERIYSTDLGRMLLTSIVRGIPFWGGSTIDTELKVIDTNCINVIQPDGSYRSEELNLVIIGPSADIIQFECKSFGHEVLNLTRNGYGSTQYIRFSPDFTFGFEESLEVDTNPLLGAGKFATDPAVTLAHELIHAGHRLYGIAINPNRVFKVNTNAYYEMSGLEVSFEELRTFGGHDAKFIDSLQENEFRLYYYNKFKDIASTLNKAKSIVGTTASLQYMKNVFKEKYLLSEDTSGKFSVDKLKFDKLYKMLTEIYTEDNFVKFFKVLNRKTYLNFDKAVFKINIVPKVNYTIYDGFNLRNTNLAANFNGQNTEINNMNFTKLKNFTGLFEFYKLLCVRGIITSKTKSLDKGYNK

Lethal factor = Lethal factor (Bacillus anthracis, UniProt P15917); test: High-throughput multiplex microsphere dose response for inhibitors of toxin protease, specifically Lethal Factor protease, compounds from Cherry Pick 02.; assay type: functional; conditions: read-out: EC50_MICROM
[5] = molecular target: Botulinum neurotoxin type F (Clostridium botulinum, UniProt P30996); test: High-throughput multiplex microsphere dose response for inhibitors of toxin protease, specifically Botulinum neurotoxin light chain F protease, compounds from Cherry Pick 02.; assay type: functional; conditions: read-out: EC50_MICROM
[6] = molecular target: Dual specificity protein kinase CLK2 (Homo sapiens, UniProt P49760); assay type: functional
[7] = molecular target: Dual specificity mitogen-activated protein kinase kinase 1 (Homo sapiens, UniProt Q02750); test: Navigating the Kinome. Panel member name: MAP2K1; assay type: functional
[8] = molecular target: Tyrosine-protein kinase JAK2 (Homo sapiens, UniProt O60674); assay type: functional;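 further: JAK2 tested as one member of a kinase panel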
Chain of Tyrosine-protein kinase JAK2 (O60674 whole entry): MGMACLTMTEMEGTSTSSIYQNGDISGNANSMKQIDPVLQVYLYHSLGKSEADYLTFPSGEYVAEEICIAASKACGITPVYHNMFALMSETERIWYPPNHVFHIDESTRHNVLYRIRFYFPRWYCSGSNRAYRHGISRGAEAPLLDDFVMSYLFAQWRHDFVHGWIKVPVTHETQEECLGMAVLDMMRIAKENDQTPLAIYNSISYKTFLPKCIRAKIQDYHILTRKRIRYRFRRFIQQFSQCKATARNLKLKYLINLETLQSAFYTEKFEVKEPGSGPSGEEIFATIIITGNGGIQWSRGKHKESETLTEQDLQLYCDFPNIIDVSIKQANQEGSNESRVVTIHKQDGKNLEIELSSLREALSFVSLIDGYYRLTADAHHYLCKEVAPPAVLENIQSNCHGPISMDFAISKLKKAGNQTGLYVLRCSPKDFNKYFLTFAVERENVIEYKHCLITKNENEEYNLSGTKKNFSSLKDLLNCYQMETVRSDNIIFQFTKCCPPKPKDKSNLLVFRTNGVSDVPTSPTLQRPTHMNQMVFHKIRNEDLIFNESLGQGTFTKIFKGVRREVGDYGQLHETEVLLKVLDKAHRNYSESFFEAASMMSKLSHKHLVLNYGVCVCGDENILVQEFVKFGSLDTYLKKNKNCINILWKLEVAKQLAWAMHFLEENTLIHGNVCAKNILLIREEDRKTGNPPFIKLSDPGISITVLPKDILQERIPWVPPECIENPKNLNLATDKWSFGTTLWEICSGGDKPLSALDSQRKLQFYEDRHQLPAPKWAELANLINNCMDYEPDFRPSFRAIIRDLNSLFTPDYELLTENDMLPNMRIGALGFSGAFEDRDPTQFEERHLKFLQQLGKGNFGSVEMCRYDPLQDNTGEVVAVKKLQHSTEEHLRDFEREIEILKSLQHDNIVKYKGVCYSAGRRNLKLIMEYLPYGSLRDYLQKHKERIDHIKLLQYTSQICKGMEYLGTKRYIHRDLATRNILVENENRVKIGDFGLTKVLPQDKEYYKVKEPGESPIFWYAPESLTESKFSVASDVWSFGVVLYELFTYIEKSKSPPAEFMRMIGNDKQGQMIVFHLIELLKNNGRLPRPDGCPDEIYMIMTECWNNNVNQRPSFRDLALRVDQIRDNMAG

[9] = molecular target: Serine/threonine-protein kinase TBK1 (Homo sapiens, UniProt Q9UHD2); test: Navigating the Kinome. Panel member name: TBK1; assay type: functional
[10] = molecular target: 5'-AMP-activated protein kinase catalytic subunit alpha-1 (Homo sapiens, UniProt Q13131); assay type: functional
[11] = molecular target: ALK tyrosine kinase receptor (Homo sapiens, UniProt Q9UM73); assay type: functional;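 further: ALK tested as one member of a kinase panel screen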
[12] = molecular target: Tyrosine-protein kinase receptor TYRO3 (Homo sapiens, UniProt Q06418); assay type: functional;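 further: TYRO3 value obtained as one member of a kinome-wide profiling panel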
[13] = molecular target: Tyrosine-protein kinase Lck (Homo sapiens, UniProt P06239); assay type: functional;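 further: lck was assayed as one member of a kinase panel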
[14] = molecular target: Death-associated protein kinase 3 (Homo sapiens, UniProt O43293); assay type: functional;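 further: measured as one member of a kinome-wide profiling panel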
[15] = molecular target: Mitogen-activated protein kinase 8 (Homo sapiens, UniProt P45983); assay type: functional;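 further: value comes from one member of a kinome-wide kinase profiling panel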
[16] = molecular target: Serine/threonine-protein kinase pim-1 (Homo sapiens, UniProt P11309); assay type: functional
Aurora kinase A = Aurora kinase A (Homo sapiens, UniProt O14965); assay type: functional;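 further: value from the Navigating the Kinome kinase panel profiling, panel entry STK6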
[17] = molecular target: Tyrosine-protein kinase BTK (Homo sapiens, UniProt Q06187); assay type: functional
[18] = molecular target: Serine/threonine-protein kinase PAK 4 (Homo sapiens, UniProt O96013); assay type: functional;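 further: value obtained within a kinome profiling panel in which PAK4 was one of the panel members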
[19] = molecular target: Fibroblast growth factor receptor 1 (Homo sapiens, UniProt P11362); assay type: functional
[20] = molecular target: Tyrosine-protein kinase JAK3 (Homo sapiens, UniProt P52333); assay type: functional
[21] = molecular target: Mitogen-activated protein kinase 9 (Homo sapiens, UniProt P45984); assay type: functional;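 further: value from a kinome panel profiling assay, MAPK9 panel entry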
[22] = molecular target: Serine/threonine-protein kinase N2 (Homo sapiens, UniProt Q16513); assay type: functional
[23] = molecular target: Serine/threonine-protein kinase TAO1 (Homo sapiens, UniProt Q7L7X3); assay type: functional
[24] = molecular target: MAP/microtubule affinity-regulating kinase 3 (Homo sapiens, UniProt P27448); assay type: functional;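 further: MARK3 affinity measured as one member of a kinome panel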
Chain of MAP/microtubule affinity-regulating kinase 3 (P27448 whole entry): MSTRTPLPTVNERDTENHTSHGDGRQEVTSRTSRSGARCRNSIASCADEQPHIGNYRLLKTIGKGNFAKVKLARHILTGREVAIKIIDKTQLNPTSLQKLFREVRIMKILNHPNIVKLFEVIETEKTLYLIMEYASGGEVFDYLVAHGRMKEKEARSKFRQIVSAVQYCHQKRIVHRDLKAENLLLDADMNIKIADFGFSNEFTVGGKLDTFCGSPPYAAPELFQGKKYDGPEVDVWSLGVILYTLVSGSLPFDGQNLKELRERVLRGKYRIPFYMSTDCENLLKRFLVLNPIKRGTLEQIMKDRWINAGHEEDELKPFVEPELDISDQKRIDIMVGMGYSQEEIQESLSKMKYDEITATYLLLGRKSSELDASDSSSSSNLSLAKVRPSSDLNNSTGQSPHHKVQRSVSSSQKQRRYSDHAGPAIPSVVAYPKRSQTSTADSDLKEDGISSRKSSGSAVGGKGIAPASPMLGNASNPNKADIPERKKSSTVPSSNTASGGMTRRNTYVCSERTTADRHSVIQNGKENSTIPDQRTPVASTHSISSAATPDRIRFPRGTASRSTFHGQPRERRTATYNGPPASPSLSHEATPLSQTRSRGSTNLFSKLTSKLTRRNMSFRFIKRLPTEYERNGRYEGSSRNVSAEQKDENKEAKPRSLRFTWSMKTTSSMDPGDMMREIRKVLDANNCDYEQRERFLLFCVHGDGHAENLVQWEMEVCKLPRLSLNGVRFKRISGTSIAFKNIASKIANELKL

[25] = molecular target: High affinity nerve growth factor receptor (Homo sapiens, UniProt P04629); assay type: functional;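 further: NTRK1 tested as one member of a kinome-wide profiling panel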
[26] = molecular target: Glycogen synthase kinase-3 alpha (Homo sapiens, UniProt P49840); assay type: functional;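 further: GSK3A result taken from a broad kinome-wide kinase panel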
[27] = molecular target: Mitogen-activated protein kinase kinase kinase kinase 2 (Homo sapiens, UniProt Q12851); assay type: functional;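 further: measured as one member of a kinome-wide kinase panel, with MAP4K2 as the panel entry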
[28] = molecular target: Receptor-type tyrosine-protein kinase FLT3 (Homo sapiens, UniProt P36888); assay type: functional;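 further: FLT3 was tested as one member of a kinome-wide kinase panel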
[29] = molecular target: Tyrosine-protein kinase ABL1 (Homo sapiens, UniProt P00519); assay type: functional
[30] = molecular target: Vascular endothelial growth factor receptor 2 (Homo sapiens, UniProt P35968); assay type: functional
[31] = molecular target: G protein-coupled receptor kinase 5 (Homo sapiens, UniProt P34947); test: Navigating the Kinome. Panel member name: GPRK5; assay type: functional
[32] = molecular target: Insulin-like growth factor 1 receptor (Homo sapiens, UniProt P08069); test: Navigating the Kinome. Panel member name: IGF1R; assay type: functional
Chain of Insulin-like growth factor 1 receptor (P08069 31-736 limits assumed): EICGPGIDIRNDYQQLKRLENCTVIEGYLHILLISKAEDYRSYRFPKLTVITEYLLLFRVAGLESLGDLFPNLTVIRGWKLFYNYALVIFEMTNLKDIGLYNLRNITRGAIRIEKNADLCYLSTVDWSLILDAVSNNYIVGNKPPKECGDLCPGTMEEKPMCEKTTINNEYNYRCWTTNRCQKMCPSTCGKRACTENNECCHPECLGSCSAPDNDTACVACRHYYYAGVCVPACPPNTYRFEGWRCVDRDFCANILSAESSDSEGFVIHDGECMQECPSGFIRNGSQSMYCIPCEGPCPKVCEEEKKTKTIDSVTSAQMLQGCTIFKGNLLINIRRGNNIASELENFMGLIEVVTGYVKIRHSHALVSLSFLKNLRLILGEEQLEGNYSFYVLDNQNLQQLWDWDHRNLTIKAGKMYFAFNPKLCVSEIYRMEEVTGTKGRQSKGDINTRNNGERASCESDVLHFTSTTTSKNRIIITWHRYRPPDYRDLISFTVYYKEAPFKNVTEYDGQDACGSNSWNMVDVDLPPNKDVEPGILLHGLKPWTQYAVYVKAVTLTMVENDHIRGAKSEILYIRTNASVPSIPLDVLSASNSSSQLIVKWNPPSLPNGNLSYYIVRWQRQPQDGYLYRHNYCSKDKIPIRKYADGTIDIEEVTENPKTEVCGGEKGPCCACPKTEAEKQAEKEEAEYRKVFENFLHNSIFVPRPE
Chain of Insulin-like growth factor 1 receptor (P08069 741-1367 limits assumed): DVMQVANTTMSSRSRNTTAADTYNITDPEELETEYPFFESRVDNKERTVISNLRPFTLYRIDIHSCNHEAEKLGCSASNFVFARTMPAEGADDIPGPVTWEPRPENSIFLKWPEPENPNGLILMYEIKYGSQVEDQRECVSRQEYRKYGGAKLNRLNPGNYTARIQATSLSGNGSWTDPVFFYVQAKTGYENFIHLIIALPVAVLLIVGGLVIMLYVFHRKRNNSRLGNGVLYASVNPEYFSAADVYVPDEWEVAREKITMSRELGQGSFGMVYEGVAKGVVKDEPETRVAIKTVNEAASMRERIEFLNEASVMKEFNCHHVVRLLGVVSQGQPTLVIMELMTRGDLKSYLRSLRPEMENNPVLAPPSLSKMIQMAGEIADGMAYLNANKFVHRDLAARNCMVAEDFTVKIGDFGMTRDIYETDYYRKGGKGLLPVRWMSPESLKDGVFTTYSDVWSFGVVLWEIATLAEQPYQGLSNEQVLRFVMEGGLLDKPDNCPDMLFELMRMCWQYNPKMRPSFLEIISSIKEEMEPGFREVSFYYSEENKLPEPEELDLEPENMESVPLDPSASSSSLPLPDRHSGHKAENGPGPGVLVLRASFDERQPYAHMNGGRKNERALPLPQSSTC

[33] = molecular target: cAMP-dependent protein kinase catalytic subunit PRKX (Homo sapiens, UniProt P51817); assay type: functional
[34] = molecular target: Platelet-derived growth factor receptor alpha (Homo sapiens, UniProt P16234); test: Navigating the Kinome. Panel member name: PDGFRA; assay type: functional
Chain of Platelet-derived growth factor receptor alpha (P16234 whole entry): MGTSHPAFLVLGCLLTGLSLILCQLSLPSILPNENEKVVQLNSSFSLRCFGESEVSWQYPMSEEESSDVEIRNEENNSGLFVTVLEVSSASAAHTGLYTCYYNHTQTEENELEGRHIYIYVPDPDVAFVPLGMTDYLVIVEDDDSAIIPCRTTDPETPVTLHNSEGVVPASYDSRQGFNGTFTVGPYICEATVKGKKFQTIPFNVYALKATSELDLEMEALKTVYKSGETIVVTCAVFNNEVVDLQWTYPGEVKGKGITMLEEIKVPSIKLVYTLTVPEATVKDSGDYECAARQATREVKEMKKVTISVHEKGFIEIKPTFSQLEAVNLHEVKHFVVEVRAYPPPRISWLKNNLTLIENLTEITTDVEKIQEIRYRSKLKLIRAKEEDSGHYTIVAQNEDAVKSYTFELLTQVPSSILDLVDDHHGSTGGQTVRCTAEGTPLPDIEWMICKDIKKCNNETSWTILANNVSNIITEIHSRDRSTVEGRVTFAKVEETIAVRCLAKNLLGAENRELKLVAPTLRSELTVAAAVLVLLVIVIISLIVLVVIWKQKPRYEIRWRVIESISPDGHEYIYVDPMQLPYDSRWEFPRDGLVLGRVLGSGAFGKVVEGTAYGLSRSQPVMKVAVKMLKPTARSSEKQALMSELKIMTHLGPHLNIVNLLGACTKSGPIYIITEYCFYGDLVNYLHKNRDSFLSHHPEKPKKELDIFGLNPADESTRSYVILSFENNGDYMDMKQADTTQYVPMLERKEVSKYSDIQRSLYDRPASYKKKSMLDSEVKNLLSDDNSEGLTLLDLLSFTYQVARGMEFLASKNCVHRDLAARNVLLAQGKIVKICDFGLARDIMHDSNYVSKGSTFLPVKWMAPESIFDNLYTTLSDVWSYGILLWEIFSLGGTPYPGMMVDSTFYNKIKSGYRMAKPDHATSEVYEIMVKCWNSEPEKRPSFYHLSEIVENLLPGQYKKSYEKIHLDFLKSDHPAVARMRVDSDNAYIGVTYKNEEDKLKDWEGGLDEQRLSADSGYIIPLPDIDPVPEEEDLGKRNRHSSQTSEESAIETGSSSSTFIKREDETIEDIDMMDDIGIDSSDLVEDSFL

[35] = molecular target: Leucine-rich repeat serine/threonine-protein kinase 2 (Homo sapiens, UniProt Q5S007); assay type: functional;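 further: value from a broad kinome-wide panel profiling study in which LRRK2 was one of the kinases tested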
[36] = molecular target: Mitogen-activated protein kinase kinase kinase kinase 5 (Homo sapiens, UniProt Q9Y4K4); assay type: functional;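 further: measured as one member of a kinome-spanning kinase panel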
[37] = molecular target: Tyrosine-protein kinase Fyn (Homo sapiens, UniProt P06241); assay type: functional
[38] = molecular target: Cyclin-dependent kinase 8 (Homo sapiens, UniProt P49336); test: Navigating the Kinome. Panel member name: CDK8; assay type: functional
[39] = molecular target: Vascular endothelial growth factor receptor 1 (Homo sapiens, UniProt P17948); assay type: functional;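 further: measured within a kinome-wide profiling panel, FLT1 as the panel member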
[40] = molecular target: Glycogen synthase kinase-3 beta (Homo sapiens, UniProt P49841); assay type: functional;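 further: value comes from a broad kinome profiling panel, with GSK3B as the panel member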
[41] = molecular target: Cyclin-dependent kinase 9 (Homo sapiens, UniProt P50750); assay type: functional;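 further: value from the CDK9 entry of a kinome-spanning kinase panel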
[42] = molecular target: cAMP-dependent protein kinase catalytic subunit alpha (Homo sapiens, UniProt P17612); assay type: functional
[43] = molecular target: Dual specificity protein kinase CLK4 (Homo sapiens, UniProt Q9HAZ1); assay type: functional
[44] = molecular target: Mitogen-activated protein kinase kinase kinase kinase 4 (Homo sapiens, UniProt O95819); assay type: functional
[45] = molecular target: Macrophage-stimulating protein receptor (Homo sapiens, UniProt Q04912); test: Navigating the Kinome. Panel member name: MST1R; assay type: functional
[46] = molecular target: Macrophage colony-stimulating factor 1 receptor (Homo sapiens, UniProt P07333); assay type: functional;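 further: value comes from the Navigating the Kinome screening panel, CSF1R member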
[47] = molecular target: Dual specificity mitogen-activated protein kinase kinase 2 (Homo sapiens, UniProt P36507); test: Navigating the Kinome. Panel member name: MAP2K2; assay type: functional
[48] = molecular target: Dual specificity tyrosine-phosphorylation-regulated kinase 1A (Homo sapiens, UniProt Q13627); assay type: functional;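 further: measured against DYRK1A as one member of a broad kinome profiling panel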
[49] = molecular target: Inhibitor of nuclear factor kappa-B kinase subunit epsilon (Homo sapiens, UniProt Q14164); test: Navigating the Kinome. Panel member name: IKBKE; assay type: functional
[50] = molecular target: Calcium/calmodulin-dependent protein kinase type II subunit alpha (Homo sapiens, UniProt Q9UQM7); test: Navigating the Kinome. Panel member name: CAMK2A; assay type: functional
[51] = molecular target: Leukocyte tyrosine kinase receptor (Homo sapiens, UniProt P29376); test: Navigating the Kinome. Panel member name: LTK; assay type: functional
[52] = molecular target: Mitogen-activated protein kinase 14 (Homo sapiens, UniProt Q16539); assay type: functional;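 further: part of a kinome-wide panel, MAPK14 entry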

CC(=NNc1nc2ccccc2o1)c1cc2ccccc2cn1
EC50 (Hexokinase HKDC1): 2.24 µM (active) | IC50 (Nonstructural protein 1): 7.16 µM (active) | EC50 (Hexokinase-1): > 80 µM (inactive) | AC50 [1]: 0.175 µM (active) | AC50 (HEK293): 0.0887 µM (active) | AC50 [2]: 16.9 µM (active) | AC50 [3]: 1.7 µM (active) | EC50 [4]: 5.1 µM (active) | EC50 (Lethal factor): 20 µM (inactive) | EC50 [5]: 9.4 µM (active)

Cc1cc(O)nc2[nH]nc(-c3cccc(-c4ccc(C#N)cc4)c3)c12
Ki [6]: > 3.98 µM (inactive) | Ki [7]: > 3.16 µM (inactive) | Ki [8]: > 2.51 µM (inactive) | Ki [9]: > 3.16 µM (inactive) | Ki [10]: > 3.16 µM (inactive) | Ki [11]: > 6.31 µM (inactive) | Ki [12]: > 3.16 µM (inactive) | Ki [13]: > 6.31 µM (inactive) | Ki [14]: > 5.01 µM (inactive) | Ki [15]: > 5.01 µM (inactive) | Ki [16]: > 6.31 µM (inactive) | Ki (Aurora kinase A): > 1.58 µM (inactive) | Ki [17]: > 6.31 µM (inactive) | Ki [18]: > 5.01 µM (inactive) | Ki [19]: > 3.98 µM (inactive) | Ki [20]: > 5.01 µM (inactive) | Ki [21]: > 3.98 µM (inactive) | Ki [22]: > 5.01 µM (inactive) | Ki [23]: > 6.31 µM (inactive) | Ki [24]: 0.001 µM (active) | Ki [25]: > 3.16 µM (inactive) | Ki [26]: 3.98 µM (active) | Ki [27]: > 2.51 µM (inactive) | Ki [28]: > 3.16 µM (inactive) | Ki [29]: > 3.98 µM (inactive) | Ki [30]: > 2.51 µM (inactive) | Ki [31]: > 3.98 µM (inactive) | Ki [32]: > 2.51 µM (inactive) | Ki [33]: > 3.16 µM (inactive) | Ki [34]: > 2.51 µM (inactive) | Ki [35]: > 2.51 µM (inactive) | Ki [36]: > 3.98 µM (inactive) | Ki [37]: > 6.31 µM (inactive) | Ki [38]: > 3.98 µM (inactive) | Ki [39]: > 3.98 µM (inactive) | Ki [40]: > 3.98 µM (inactive) | Ki [41]: > 1.58 µM (inactive) | Ki [42]: > 1.26 µM (inactive) | Ki [43]: > 2.51 µM (inactive) | Ki [44]: > 5.01 µM (inactive) | Ki [45]: > 3.98 µM (inactive) | Ki [46]: > 2.51 µM (inactive) | Ki [47]: > 3.98 µM (inactive) | Ki [48]: > 2 µM (inactive) | Ki [49]: > 3.16 µM (inactive) | Ki [50]: > 7.94 µM (inactive) | Ki [51]: > 2.51 µM (inactive) | Ki [52]: > 3.98 µM (inactive)
